The numbers were not newly measured in patent publication US20110105434A1, “2-AMINO PURINE DERIVATIVES AND THEIR USE AS ANTI-HERPETIC AGENTS” (priority 2007, published 2011), which cites them from elsewhere.

For the data set the following is noted: oral maximum dose of 800 mg 5 times per day, most patients; cited from earlier work.

In the case of `Nc1nc2c(ncn2COCCO)c(=O)[nH]1` [acyclovir, 2-amino-9-1,-dihydro-9-[(2-hydroxyethyl)methyl]-6H-purin-6-one], the blood level result is reported as “about 1.61 ng/mL”.
